Measured values taken from US20260000670A1 (priority 2022, published 2026).

How the values were obtained:
[1] = system: PBMCs from human heathy donors; assay: FluoroSpot T cell responses of PBMCs to AAV2 and AAV9 capsid peptide pools; assay type: cell-based; conditions: 100 nM dasatinib, 48 hrs, two donors
Description: FIGS. 12A-12B: Dasatinib treatment reduces T cell responses to AAV2 and AAV9 in vitro. PBMCs from human heathy donors were stimulated with peptide pools covering the AAV2 and AAV9 capsid sequences in the absence (black bars) or presence of 100 nM dasatinib (grey bars). After 48 hrs, IFN-γ- and TNF-α secreting cells were measured by Fluorospot. Mean Spot-Forming Cellsmedian+/−SD are shown for 1E6 PBMCs. Dotted line: Positivity threshold.
An important question was its potential effect on the cellular adaptive immune response. T cell responses to rAAV have been reported to induce the clearance of AAV-transduced cells and thereby decrease the duration of transgene expression. It is also known that T cell responses to AAV can mediate liver toxicities in the clinic. T cell responses to AAV can be measured in healthy human blood donors who have previously been infected with wild-type AAV. FluoroSpot assays reveal the proportions of IFN-y-and TNF-a-producing PBMCs induced upon incubation with pools of AAV capsid peptides. We used this assay to assess the response of PBMCs from two healthy blood donors to three different peptide pools covering the capsid sequences of AAV2 and AAV9 (FIGS. 12A-12B). […] Donor 2 had positive IFN-γ and/or TNF-α responses to AAV9 pools 2 and 3. All these responses were inhibited in the presence of 100 nM dasatinib.

mice = assay: hFIX transgene expression after re-dosing, 1-week vs 2-week dasatinib treatment; assay type: in vivo
Description: FIG. 7: In vivo study to assess the impact of prolonging the dasatinib treatment. All mouse groups, except Group 1, were immunized on day 1 with an i.v. injection of AAV8-hSeap (1e12 vg/kg). Four groups received an i.v. injection of AAV8-FactorIX (3e13 vg/kg) on day 43. Concomitantly to the first AAV administration, Groups 3 and 4 were treated with dasatinib for either 1 or 2 weeks, respectively. Dasatinib was administered at the dose of 50 mg/kg per oral gavage, twice per day and starting 1 hr before the first AAV treatment.
FIG. 10: Prolongation of dasatinib treatment upon first AAV8 dosing improves transgene expression after readministration. In the experiment described in FIG. 10, the levels of hFIX expression (ng/mL, median+/−SD) were measured for each group, starting on day 42 (one day before administration of AAV8-hFIX) and up to day 64.
In the experiment described in Example 1, despite the strong inhibition of anti-AAV antibody formation observed in most of the mice, 4 out of 10 dasatinib-treated animals started to develop anti-AAV8 IgG before re-dosing (FIG. 3C, days 15-21). […]
The inhibition of antibody formation to AAV8 correlated with the improvement of hFIX transgene expression after re-dosing, showing efficient transduction by the second AAV8(FIG. 10). Expression of hFIX was inversely correlated with the IgG and IgM titers measured on day 42 before re-dosing.

Cc1nc(Nc2ncc(C(=O)Nc3c(C)cccc3Cl)s2)cc(N2CCN(CCO)CC2)n1 [dasatinib, N-(2-chloro-6-methylphenyl)-2-[[6-[4-(2-hydroxyethyl)-1-piperazinyl]-2-methyl-4-pyrimidinyl]amino]-5-thiazole carboxamide monohydrate]
IFN-γ responses (secreting cells) to AAV9 peptide pools [1]: inhibited | TNF-α responses (secreting cells) to AAV2 and AAV9 peptide pools [1]: inhibited | expression of hFIX, 2-week treatment compared with 1-week treatment (mice; Group 4 (2 weeks) vs Group 3 (1 week), after AAV8-FactorIX 3e13 vg/kg on day 43): higher | hFIX levels in mice that remained IgG-negative on day 42 (mice; day 64, dasatinib-treated mice): in the range of those measured in the non-immunized control Group 1
